The record followed here is patent publication US20250049970A1, “DLL3 TARGETING PEPTIDES AND CONSTRUCTS THEREOF” (MARIANA ONCOLOGY INC., priority 2023, published 2025).

In general, Kd refers to the free concentration of one partner at which half of the binding sites on the other are occupied at equilibrium, for simple one-to-one binding.

The experiment deals with T1, DLL3 (Homo sapiens, UniProt Q9NYJ7).
T1 sequence (Q9NYJ7 27-618): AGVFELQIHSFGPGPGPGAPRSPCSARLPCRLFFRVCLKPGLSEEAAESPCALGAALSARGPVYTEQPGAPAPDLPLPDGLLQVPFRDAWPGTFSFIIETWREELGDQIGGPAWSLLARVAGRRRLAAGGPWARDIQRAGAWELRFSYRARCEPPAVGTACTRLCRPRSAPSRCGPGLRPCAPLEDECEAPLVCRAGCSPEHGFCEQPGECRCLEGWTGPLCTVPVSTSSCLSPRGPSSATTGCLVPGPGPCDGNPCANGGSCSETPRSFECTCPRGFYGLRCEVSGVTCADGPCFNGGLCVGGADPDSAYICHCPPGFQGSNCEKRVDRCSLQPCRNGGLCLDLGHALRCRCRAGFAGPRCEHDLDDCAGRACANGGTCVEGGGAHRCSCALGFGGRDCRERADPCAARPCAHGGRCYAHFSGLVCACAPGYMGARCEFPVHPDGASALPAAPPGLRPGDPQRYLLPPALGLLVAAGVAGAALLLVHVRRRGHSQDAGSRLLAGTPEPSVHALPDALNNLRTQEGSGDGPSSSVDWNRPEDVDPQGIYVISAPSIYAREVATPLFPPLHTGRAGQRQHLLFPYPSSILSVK
Description: SPR KD, biotinylated human DLL3 on streptavidin chip (Table 8). Set-up: biotin (biotinylated). Conditions: biotinylated human DLL3 on streptavidin sensor chip, 25° C., 1:1 binding model; read-out: SPR KD. The text has this: Biotinylated target ligand human DLL3 was immobilized on a streptavidin sensor chip. A reference surface was set up for nonspecific binding and refractive index changes. […] Sensorgram curves were fitted with 1:1 binding model, and affinity and kinetic parameters were obtained using Biacore Insight evaluation 4.0. software.

*1 amine or outer side, *2 acyl side, *3 side chain or, on linkers, in order; H or OH if unused. Where a SMILES comes first, the peptide text is derived from it. Bridges are numbered along the chain shown (N, C = ends). [ ]: non-standard residue; d: D form. The star is where a group is joined. ξ: configuration not given here. Ala(piperidin-4-yl) = O=C([C@H](CC1CCN([*:3])CC1)N[*:1])[*:2]; DOTA = O=C(O)CN1CCN(CC(=O)O)CCN(CC(=O)*)CCN(CC(=O)O)CC1; Trp(7-OMe) = COc1cccc2c(C[C@H](N)C(=O)O)c[nH]c12; Trp(7-Me) = Cc1cccc2c(C[C@H](N)C(=O)O)c[nH]c12; Trp(7-aza) = N[C@@H](Cc1c[nH]c2ncccc12)C(=O)O; Trp(1-Me) = Cn1cc(C[C@H](N)C(=O)O)c2ccccc21; Phe(4-F) = N[C@@H](Cc1ccc(F)cc1)C(=O)O; 2Nal = N[C@@H](Cc1ccc2ccccc2c1)C(=O)O; tBuAla = CC(C)(C)C[C@H](N)C(=O)O; Cha = N[C@@H](CC1CCCCC1)C(=O)O; AllylGly = C=CC[C@H](N)C(=O)O; Chg = N[C@H](C(=O)O)C1CCCCC1; NMeNle = CCCC[C@H](NC)C(=O)O; CH2 = C([*:1])[*:2]; ξP = O=C(O)C1CCCN1

On to `CCCCCCCCCCCCCCCC(=O)N[C@@H](CCC(=O)NCCOCCOCCOCCOCCOCCOCCOCCOCCOCCOCCOCCOCCOCCOCCOCCOCCOCCOCCOCCOCCOCCOCCOCCOCCC(=O)NCCCC[C@H](NC(=O)CN1CCC(C[C@@H]2NC(=O)[C@@H](NC(=O)[C@H](CC(C)(C)C)N(C)C(=O)[C@@H](NC(=O)[C@H](Cc3c[nH]c4ccccc34)NC(C)=O)[C@@H](C)O)CSCSC[C@@H](C(=O)N[C@@H](Cc3c[nH]c4ccccc34)C(=O)N3CCC[C@H]3C(N)=O)NC(=O)[C@H](CC(=O)O)NC(=O)[C@H](CCCCNC(=O)CN3CCN(CC(=O)O)CCN(CC(=O)O)CCN(CC(=O)O)CC3)NC(=O)[C@H](Cc3ccc4ccccc4c3)NC(=O)[C@H](CC(N)=O)NC2=O)CC1)C(=O)O)C(=O)O` [compound 450, Ac-W-T-(NMe-tBuAla)-C(1)-[PipA(acetic-Lys-PEG24-gE-palmitoyl)]-N-(2Nal)-Lys(DOTA)-D-C(1)-W-P-CONH2], for which the Kd is < 1 nM.

For the molecule `COc1cccc2c(C[C@H](NC(C)=O)C(=O)N[C@H](C(=O)N[C@H](C(=O)N[C@H]3CSCSC[C@@H](C(=O)N[C@@H](Cc4c[nH]c5ccccc45)C(=O)N4CCCC4C(N)=O)NC(=O)[C@H](CC(=O)O)NC(=O)[C@H](CCCCNC(=O)CN4CCN(CC(=O)O)CCN(CC(=O)O)CCN(CC(=O)O)CC4)NC(=O)[C@H](Cc4ccc5ccccc5c4)NC(=O)[C@H](CC(N)=O)NC(=O)[C@H](CC4CCNCC4)NC3=O)C3CCCCC3)[C@@H](C)O)c[nH]c12` (stereo partly drawn) [compound 430, Ac-(7MeO-Trp)-T-(Chg)-C(1)-[3-(4-piperidinyl)-Ala]-N-(2Nal)-Lys(DOTA)-D-C(1)-W-P-CONH2] (Ac-[Trp(7-OMe)]T[Chg]C[Ala(piperidin-4-yl)]N[2Nal]K(DOTA)DCW[ξP]-NH2; linker 4-10 via CH2), the Kd is < 1 nM.

`CC[C@H](C)[C@H](NC(=O)[C@@H](NC(=O)[C@H](Cc1c[nH]c2ccccc12)NC(=O)[C@H](C)NC(C)=O)[C@@H](C)O)C(=O)N[C@H]1CSSC[C@@H](C(=O)N[C@@H](Cc2c[nH]c3ccccc23)C(=O)N2CCC[C@H]2C(N)=O)NC(=O)[C@H](CC(=O)O)NC(=O)[C@H](Cc2cnc[nH]2)NC(=O)[C@H](Cc2c[nH]c3ccccc23)NC(=O)[C@H](CC(N)=O)NC(=O)[C@H](CC(N)=O)NC1=O` [compound 11, Ac-(L-Ala)-W-T-I-C(3)-N-N-W-H-D-C(3)-W-P-CONH2] (Ac-AWTICNNWHDCWP-NH2; disulfide 5-11): the equilibrium dissociation constant (Kd) fell in the range of 1 to 10 nM.

Take `CC[C@H](C)[C@H](NC(=O)[C@@H](NC(=O)[C@H](Cc1c[nH]c2ccccc12)NC(C)=O)[C@@H](C)O)C(=O)N[C@H]1CC=CC[C@@H](C(=O)N[C@@H](Cc2c[nH]c3ccccc23)C(=O)N2CCC[C@H]2C(N)=O)NC(=O)[C@H](CC(=O)O)NC(=O)[C@H](Cc2cnc[nH]2)NC(=O)[C@H](Cc2c[nH]c3ccccc23)NC(=O)[C@H](CC(N)=O)NC(=O)[C@H](CC(N)=O)NC1=O` [compound 331] (Ac-WTI[AllylGly]NNWHD[AllylGly]WP-NH2; staple 4-10): the dissociation constant Kd was in the range of 100 to 300 nM.

As for `CC[C@H](C)[C@H](NC(=O)[C@@H](NC(=O)[C@H](Cc1c[nH]c2ccccc12)NC(=O)[C@H](CCSC)NC(C)=O)[C@@H](C)O)C(=O)N[C@H]1CSSC[C@@H](C(=O)N[C@@H](Cc2cn(C)c3ccccc23)C(=O)N2CCC[C@H]2C(N)=O)NC(=O)[C@H](CC(=O)O)NC(=O)[C@H](Cc2c[nH]cn2)NC(=O)[C@H](Cc2c[nH]c3ccccc23)NC(=O)[C@H](CC(N)=O)NC(=O)[C@H](CC(N)=O)NC1=O` [compound 43, Ac-M-W-T-I-C(3)-N-N-W-H-D-C(3)-(1Me-W)-P-CONH2] (Ac-MWTICNNWHDC[Trp(1-Me)]P-NH2; disulfide 5-11), the dissociation constant Kd fell in the range of 10 to 100 nM.

With `CC[C@H](C)[C@H](NC(=O)[C@@H](NC(=O)[C@H](Cc1c[nH]c2ccccc12)NC(C)=O)[C@@H](C)O)C(=O)N[C@H]1CSSC[C@@H](C(=O)N[C@@H](Cc2ccc(F)cc2)C(=O)N2CCC[C@H]2C(N)=O)NC(=O)[C@H](CC(=O)O)NC(=O)[C@H](Cc2c[nH]cn2)NC(=O)[C@H](Cc2c[nH]c3ccccc23)NC(=O)[C@H](CC(N)=O)NC(=O)[C@H](CC(N)=O)NC1=O` [compound 52, Ac-W-T-I-C(3)-N-N-W-H-D-C(3)-(4Fluoro-F)-P-CONH2] (Ac-WTICNNWHDC[Phe(4-F)]P-NH2; disulfide 4-10), the equilibrium dissociation constant (Kd) lay in the range of 10 to 100 nM.

For `CC(=O)NCCCC[C@@H](NC(=O)[C@@H]1CCCN1C(=O)[C@H](Cc1c[nH]c2ccccc12)NC(=O)[C@@H]1CSCSC[C@H](NC(=O)[C@H](CC(C)(C)C)NC(=O)[C@@H](NC(=O)[C@H](Cc2c[nH]c3ccccc23)NC(C)=O)[C@@H](C)O)C(=O)N[C@@H](CC2CCNCC2)C(=O)N[C@@H](CC(N)=O)C(=O)N[C@@H](Cc2ccc3ccccc3c2)C(=O)N[C@@H](CCCCNC(=O)CN2CCN(CC(=O)O)CCN(CC(=O)O)CCN(CC(=O)O)CC2)C(=O)N[C@@H](CC(=O)O)C(=O)N1)C(N)=O` [compound 438, Ac-W-T-(t-Bu-Ala)-C(1)-[3-(4-piperidinyl)-Ala]-N-(2Nal)-Lys(DOTA)-D-C(1)-W-P-[D-Lys(Ac)]-CONH2] (Ac-WT[tBuAla]C[Ala(piperidin-4-yl)]N[2Nal]K(DOTA)DCWP[dK](Ac)-NH2; linker 4-10 via CH2), the Kd is < 1 nM.

For `CC(=O)N[C@@H](Cc1c[nH]c2ccccc12)C(=O)N[C@H](C(=O)N[C@@H](CC(C)(C)C)C(=O)N[C@H]1CSSC[C@@H](C(=O)N[C@@H](Cc2c[nH]c3ccccc23)C(=O)N2CCC[C@H]2C(N)=O)NC(=O)[C@H](CC(=O)O)NC(=O)[C@H](CCCCNC(=O)CN2CCN(CC(=O)O)CCN(CC(=O)O)CCN(CC(=O)O)CC2)NC(=O)[C@H](Cc2ccc3ccccc3c2)NC(=O)[C@H](CC(N)=O)NC(=O)C(CN2CCOCC2)NC1=O)[C@@H](C)O` (single isomer, unassigned) [compound 305, Ac-W-T-(t-Bu-Ala)-C(3)-[3-(1-morpholinyl)-Ala]-N-(2Nal)-Lys(DOTA)-D-C(3)-W-P-CONH2], the equilibrium dissociation constant (Kd) is < 1 nM.

On to `CC[C@H](C)[C@H](NC(=O)[C@@H](NC(=O)[C@H](Cc1c[nH]c2ncccc12)NC(C)=O)[C@@H](C)O)C(=O)N[C@H]1CSSC[C@@H](C(=O)N[C@@H](Cc2c[nH]c3ccccc23)C(=O)N2CCC[C@H]2C(N)=O)NC(=O)[C@H](CC(=O)O)NC(=O)[C@H](Cc2cnc[nH]2)NC(=O)[C@H](Cc2c[nH]c3ccccc23)NC(=O)[C@H](CC(N)=O)NC(=O)[C@H](CC(N)=O)NC1=O` [compound 24, Ac-(7Aza-W)-T-I-C(3)-N-N-W-H-D-C(3)-W-P-CONH2] (Ac-[Trp(7-aza)]TICNNWHDCWP-NH2; disulfide 4-10), for which the dissociation constant (Kd) lay in the range of 10 to 100 nM.

Turning to `CCCC[C@@H](C(=O)N[C@H]1CSSC[C@@H](C(=O)N[C@@H](Cc2c[nH]c3ccccc23)C(=O)N2CCC[C@H]2C(N)=O)NC(=O)[C@H](CC(=O)O)NC(=O)[C@H](CCCCNC(=O)CN2CCN(CC(=O)O)CCN(CC(=O)O)CCN(CC(=O)O)CC2)NC(=O)[C@H](Cc2ccc3ccccc3c2)NC(=O)[C@H](CC(N)=O)NC(=O)[C@H](CC2CCNCC2)NC1=O)N(C)C(=O)[C@@H](NC(=O)[C@H](Cc1c[nH]c2c(C)cccc12)NC(C)=O)[C@@H](C)O` [compound 408, Ac-(7Me-Trp)-T-(NMe-Nle)-C(3)-[3-(4-piperidinyl)-Ala]-N-(2Nal)-Lys(DOTA)-D-C(3)-W-P-CONH2] (Ac-[Trp(7-Me)]T[NMeNle]C[Ala(piperidin-4-yl)]N[2Nal]K(DOTA)DCWP-NH2; disulfide 4-10), the equilibrium dissociation constant (Kd) was < 1 nM.

In the case of `CC(=O)N[C@@H](Cc1c[nH]c2ccccc12)C(=O)N[C@H](C(=O)N[C@@H](CC(C)(C)C)C(=O)N[C@H]1CSSC[C@@H](C(=O)N[C@@H](Cc2c[nH]c3ccccc23)C(=O)N2CCC[C@H]2C(N)=O)NC(=O)[C@H](CC(=O)O)NC(=O)[C@H](CCCCNC(=O)CN2CCN(CC(=O)O)CCN(CC(=O)O)CCN(CC(=O)O)CC2)NC(=O)[C@H](Cc2ccc3ccccc3c2)NC(=O)[C@H](CC(N)=O)NC(=O)C(CN2CCOCC2)NC1=O)[C@@H](C)O` (single isomer, unassigned) [compound 310, Ac-W-T-(t-Bu-Ala)-C(3)-[3-(1-morpholinyl)-Ala]-N-(2Nal)-Lys(DOTA)-D-C(3)-W-P-CONH2], the Kd was < 1 nM.

Turning to `CC(=O)N[C@@H](Cc1c[nH]c2ccccc12)C(=O)N[C@H](C(=O)N[C@@H](CC1CCCCC1)C(=O)N[C@H]1CSSC[C@@H](C(=O)N[C@@H](Cc2c[nH]c3ccccc23)C(=O)N2CCC[C@H]2C(N)=O)NC(=O)[C@H](CC(=O)O)NC(=O)[C@H](Cc2cnc[nH]2)NC(=O)[C@H](Cc2c[nH]c3ccccc23)NC(=O)[C@H](CC(N)=O)NC(=O)[C@H](CC(N)=O)NC1=O)[C@@H](C)O` [compound 340, Ac-W-T-(CHA)-C(3)-N-N-W-H-D-C(3)-W-P-CONH2] (Ac-WT[Cha]CNNWHDCWP-NH2; disulfide 4-10), the equilibrium dissociation constant (Kd) was in the range of 1 to 10 nM.
